Measured values taken from PubChem BioAssay AID248 (DTP/NCI, 2004).
Values joined by “and” are separate entries in the source; they are usually repeats but may differ in a detail not shown here. Equal entries are not always repeated. Toxic doses and inconclusive results are not listed. Rule as the data show it: active = T/C of 150% or more; inactive = T/C below 125%.

Test system: L1210 leukemia ip in BDF1 mice, survival T/C
Test: NCI In Vivo Anticancer Drug Screen. Data for tumor model L1210 Leukemia (intraperitoneal) in B6D2F1 (BDF1) mice
Conditions: endpoint: mean survival time, higher = longer survival
Procedure, shortened: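 Value reflects the ratio of survival in compound-treated mice to survival in vehicle-treated controls, with both groups carrying the same transplanted tumor.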

[1] = dose: 100.0 mg/kg/injection, schedule: Q01DX009 (ip), vehicle: saline with Tween-80
[2] = dose: 100.0 mg/kg/injection, schedule: Q04DX003 (ip), vehicle: saline with Tween-80
[3] = dose: 200.0 mg/kg/injection, schedule: Q01DX009 (ip), vehicle: saline with Tween-80
[4] = dose: 200.0 mg/kg/injection, schedule: Q04DX003 (ip), vehicle: saline with Tween-80
[5] = dose: 400.0 mg/kg/injection, schedule: Q01DX009 (ip), vehicle: saline with Tween-80
[6] = dose: 400.0 mg/kg/injection, schedule: Q04DX003 (ip), vehicle: saline with Tween-80
[7] = dose: 100.0 mg/kg/injection, schedule: Q01DX009 (ip), vehicle: Klucel (hydroxypropylcellulose) (HPC)
[8] = dose: 100.0 mg/kg/injection, schedule: Q04DX003 (ip), vehicle: Klucel (hydroxypropylcellulose) (HPC)
[9] = dose: 200.0 mg/kg/injection, schedule: Q01DX009 (ip), vehicle: Klucel (hydroxypropylcellulose) (HPC)
[10] = dose: 200.0 mg/kg/injection, schedule: Q04DX003 (ip), vehicle: Klucel (hydroxypropylcellulose) (HPC)
[11] = dose: 400.0 mg/kg/injection, schedule: Q01DX009 (ip), vehicle: Klucel (hydroxypropylcellulose) (HPC)
[12] = dose: 400.0 mg/kg/injection, schedule: Q04DX003 (ip), vehicle: Klucel (hydroxypropylcellulose) (HPC)
[13] = dose: 100.0 mg/kg/injection, schedule: Q04DX002 (ip), vehicle: Klucel (hydroxypropylcellulose) (HPC)
[14] = dose: 200.0 mg/kg/injection, schedule: Q04DX002 (ip), vehicle: Klucel (hydroxypropylcellulose) (HPC)
[15] = dose: 400.0 mg/kg/injection, schedule: Q04DX002 (ip), vehicle: Klucel (hydroxypropylcellulose) (HPC)
[16] = dose: 100.0 mg/kg/injection, schedule: Q01DX001 (ip), vehicle: saline
[17] = dose: 200.0 mg/kg/injection, schedule: Q01DX001 (ip), vehicle: saline
[18] = dose: 400.0 mg/kg/injection, schedule: Q01DX001 (ip), vehicle: saline
[19] = dose: 5.0 mg/kg/injection, schedule: Q01DX001 (ip), vehicle: saline
[20] = dose: 10.0 mg/kg/injection, schedule: Q01DX001 (ip), vehicle: saline
[21] = dose: 40.0 mg/kg/injection, schedule: Q01DX001 (ip), vehicle: saline

Measured: T/C

Cc1noc(N)c1-n1c(C)ccc1C
inactive: [1] 102 % of control | [2] 100 % of control | [3] 105 % of control | [4] 98 % of control | [5] 100 % of control | [6] 94 % of control

Nc1ccc2c(c1)/C(=N/O)c1cc(Br)ccc1-2
inactive: dose: 100.0 mg/kg/injection, schedule: Q01DX001 (ip), vehicle: carboxymethylcellulose (CMC) 110 % of control | dose: 200.0 mg/kg/injection, schedule: Q01DX001 (ip), vehicle: carboxymethylcellulose (CMC) 102 % of control | dose: 400.0 mg/kg/injection, schedule: Q01DX001 (ip), vehicle: carboxymethylcellulose (CMC) 100 % of control

O=[N+]([O-])Nc1cc(Cl)nc(Cl)c1
inactive: dose: 75.0 mg/kg/injection, schedule: Q01DX001 (ip), vehicle: carboxymethylcellulose (CMC) 105 % of control | dose: 150.0 mg/kg/injection, schedule: Q01DX001 (ip), vehicle: carboxymethylcellulose (CMC) 97 % of control

O=C(Nc1ccccc1C(F)(F)F)c1ccc(Cl)cc1
inactive: [7] 97 % of control | [8] 93 % of control | [9] 103 % of control | [10] 99 % of control | [11] 94 % of control | [12] 88 % of control

Clc1ccccc1C=Nc1cccc2ccccc12
inactive: [7] 121 % of control | [9] 104 % of control | [11] 107 % of control

O=c1c2ccccc2[nH]c(=S)n1-c1cccc(C(F)(F)F)c1
inactive: [7] 100 % of control | [9] 97 % of control | [11] 96 % of control

O=C(Nc1cccc(Cl)c1Cl)OCCN1CCNC1=S
inactive: dose: 100.0 mg/kg/injection, schedule: Q01DX009 (ip), vehicle: saline 94 % of control | dose: 200.0 mg/kg/injection, schedule: Q01DX009 (ip), vehicle: saline 96 % of control | dose: 400.0 mg/kg/injection, schedule: Q01DX009 (ip), vehicle: saline 102 % of control

CCOC(=O)c1c(C)nc(C)c(C(=O)OCC)c1C
inactive: dose: 100.0 mg/kg/injection, schedule: Q01DX001 (ip), vehicle: saline with Tween-80 101 % of control | dose: 200.0 mg/kg/injection, schedule: Q01DX001 (ip), vehicle: saline with Tween-80 99 % of control | dose: 400.0 mg/kg/injection, schedule: Q01DX001 (ip), vehicle: saline with Tween-80 95 % of control

COC1OC(CO)C(NC(N)=O)C1O (stereo unspecified)
inactive: [13] 105 % of control | [14] 105 % of control | [15] 111 % of control

CCOC(=O)Nc1ccc(NC(C)=O)cc1
inactive: [7] 104 % of control | [9] 98 % of control | [11] 93 % of control

CCN(CC)CC(=O)NCC(CCN1CCOCC1)c1cccc2ccccc12 (stereo unspecified)
inactive: dose: 100.0 mg/kg/injection, schedule: Q04DX003 (ip), vehicle: saline 96 % of control | dose: 200.0 mg/kg/injection, schedule: Q04DX003 (ip), vehicle: saline 100 % of control | dose: 400.0 mg/kg/injection, schedule: Q04DX003 (ip), vehicle: saline 93 % of control

NS(=O)(=O)c1nc[nH]c1[N+](=O)[O-]
inactive: dose: 100.0 mg/kg/injection, schedule: Q01DX009 (ip), vehicle: acetone 92 % of control | dose: 200.0 mg/kg/injection, schedule: Q01DX009 (ip), vehicle: acetone 90 % of control

CCCCNC(=O)Nc1ccc(SC)cc1
inactive: [7] 103 % of control | [8] 94 % of control | [9] 95 % of control | [10] 93 % of control | [11] 88 % of control | [12] 94 % of control

CCC(=O)Cc1ccc2[nH]c(C)cc(=O)c2c1
inactive: [16] 96 % of control | [17] 98 % of control | [18] 88 % of control

O=C1Nc2ccc3c4c(ccc1c24)CC3
inactive: dose: 50.0 mg/kg/injection, schedule: Q01DX001 (ip), vehicle: saline 104 % of control | [16] 95 % of control | [17] 98 % of control | [18] 98 % of control

CCC[CH2][Sn]1([CH2]CCC)[O]C(=O)C2C(C=C(C)C)C=C(C)C(C)C2C(=O)[O]1 (stereo unspecified)
inactive: [19] 93 % of control | [20] 104 % of control | dose: 20.0 mg/kg/injection, schedule: Q01DX001 (ip), vehicle: saline 104 % of control | [21] 96 % of control | dose: 80.0 mg/kg/injection, schedule: Q01DX001 (ip), vehicle: saline 102 % of control | [16] 117 % of control

COc1ccc(Cc2nc3ccc(Cl)cc3[nH]2)cc1
inactive: dose: 100.0 mg/kg/injection, schedule: Q04DX003 (ip), vehicle: other 101 % of control | dose: 200.0 mg/kg/injection, schedule: Q04DX003 (ip), vehicle: other 98 % of control | dose: 400.0 mg/kg/injection, schedule: Q04DX003 (ip), vehicle: other 98 % of control

CC(=O)Nc1ccc(C(=O)O)cc1
inactive: [13] 88 % of control | [14] 92 % of control | [15] 111 % of control

CC(O)c1cc(Cl)ccc1Cl (stereo unspecified)
inactive: [1] 87 % of control | [2] 101 % of control and 107 % of control | [3] 103 % of control | [4] 107 % of control | [5] 92 % of control | [6] 98 % of control and 92 % of control

O=P(NC12CC3CC(CC(C3)C1)C2)(Oc1ccccc1Cl)Oc1ccccc1Cl
inactive: [7] 101 % of control | [9] 101 % of control | [11] 95 % of control

N#Cc1nc(N)c(NC2(O)C(=O)Nc3ccccc32)nc1C#N (stereo unspecified)
inactive: [13] 97 % of control | [14] 105 % of control

CCCCC[As](=O)(O)CCCCC
inactive: [19] 104 % of control | [20] 106 % of control | [21] 115 % of control | [16] 94 % of control

Cc1ccc2c(c1)CN(C13CC4CC(CC(C4)C1)C3)CO2
inactive: dose: 100.0 mg/kg/injection, schedule: Q04DX003 (ip), vehicle: saline sonified 91 % of control | dose: 200.0 mg/kg/injection, schedule: Q04DX003 (ip), vehicle: saline sonified 102 % of control | dose: 400.0 mg/kg/injection, schedule: Q04DX003 (ip), vehicle: saline sonified 93 % of control

CN(Nc1c([N+](=O)[O-])cc([N+](=O)[O-])cc1[N+](=O)[O-])c1cccc2ccccc12
inactive: dose: 50.0 mg/kg/injection, schedule: Q01DX009 (ip), vehicle: Klucel (hydroxypropylcellulose) (HPC) 106 % of control | [7] 97 % of control | [8] 98 % of control | [9] 97 % of control | [10] 98 % of control | [11] 102 % of control | [12] 90 % of control

CN(C(=O)c1ccccc1Cl)C(c1ccco1)P(=O)(c1ccccc1)c1ccccc1 (stereo unspecified)
inactive: [1] 93 % of control | dose: 100.0 mg/kg/injection, schedule: Q04DX002 (ip), vehicle: saline with Tween-80 93 % of control | [3] 90 % of control | dose: 200.0 mg/kg/injection, schedule: Q04DX002 (ip), vehicle: saline with Tween-80 90 % of control | [5] 87 % of control | dose: 400.0 mg/kg/injection, schedule: Q04DX002 (ip), vehicle: saline with Tween-80 90 % of control
